Data published in US20180228828A1, “FIXED-DOSE COMBINATIONS OF ANTIVIRAL COMPOUNDS” (priority 2015, published 2018).

How the values were obtained:
[1] = human bioavailability comparison study, Tablet Formulation 9 vs co-administered single entity products; assay type: in vivo; conditions: for AUC(0-inf) / Cmax / AUC(0-t) / concentration at 24 h: human plasma, fasted; for concentration at 24 h: read-out: C24 GM
Method: (§1) The blend is lubricated with magnesium stearate prior to roller compaction. Following roller compaction, the granules are further lubricated with magnesium stearate before compression on a rotary press. Tablet properties of apparent density and solid fraction are determined by gravimetric measurement of the drug product and geometric estimation of size with corresponding component powder measure of true density using helium pycnometry. The core tablets are then film coated and waxed to complete manufacture.
(§2) The reference in the study was co-administration of single entity products to achieve the equivalent total dose. In this cross-over design study all subjects were in the fasted state. Tablet Formulations 9b, and 10b were administered as Treatment C in the respective studies. Tablet Formulations 9a, and 10a were administered as Treatment B in the respective studies. The co-administration of the reference products were identified as Treatment A. After administration, blood samples were taken periodically, and the plasma concentration of the analytes, both primary compounds and metabolites, determined to generate the pharmacokinetic profiles and related specific metrics. These metrics included Cmax, AUC, and C24 (where quantifiable). Summary results from the human PK trials for Tablet Formulation 9 and Tablet Formulation 10 products are provided in Table 10 to Table 13 and Table 14 to 17, respectively. The resulting metrics were then compared in relation to the reference single entity products to assess similarity.

[2] = human bioavailability comparison study, Tablet Formulation 10 vs co-administered single entity products; assay type: in vivo; conditions: for AUC(0-inf) / Cmax / AUC(0-t) / concentration at 24 h: human plasma, fasted; for concentration at 24 h: read-out: C24 GM
Method: as §1, §2

log D = assay type: physicochemical; conditions: pH=7
[3] = Treatment B (Tablet Formulation 9a) / Treatment A (single entities)
[4] = Treatment C (Tablet Formulation 9b) / Treatment A (single entities)
[5] = human, in vivo, Treatment A: co-administered single entity products, equivalent total dose
[6] = human, in vivo, Treatment A: co-administered single entity products, equivalent total dose, read-out: AUC0-24 GM
[7] = human, in vivo, Treatment A: co-administered single entity products, equivalent total dose, read-out: AUC0-last GM
[8] = human, in vivo, Treatment B: two units Tablet Formulation 9a
[9] = human, in vivo, Treatment C: two units Tablet Formulation 9b
[10] = Treatment B (Tablet Formulation 10a) / Treatment A (single entities)
[11] = Treatment C (Tablet Formulation 10b) / Treatment A (single entities)
[12] = human, in vivo, Treatment B: one unit Tablet Formulation 10a
[13] = human, in vivo, Treatment C: one unit Tablet Formulation 10b
[14] = human, plasma, oral, Treatment A: co-administered single entity products, equivalent total dose
[15] = human, plasma, oral, Treatment A: co-administered single entity products, equivalent total dose, read-out: AUC0-24 GM
[16] = human, plasma, oral, Treatment A: co-administered single entity products, equivalent total dose, read-out: AUC0-last GM
[17] = human, plasma, oral, Treatment B: two units Tablet Formulation 9a (450 mg Compound I, 100 mg Compound II, 50 mg Compound III), read-out: AUC0-last GM
[18] = human, plasma, oral, Treatment B: two units Tablet Formulation 9a
[19] = human, plasma, oral, Treatment B: two units Tablet Formulation 9a, read-out: AUC0-24 GM
[20] = human, plasma, oral, Treatment C: two units Tablet Formulation 9b (450 mg Compound I, 100 mg Compound II, 50 mg Compound III), read-out: AUC0-last GM
[21] = human, plasma, oral, Treatment C: two units Tablet Formulation 9b
[22] = human, plasma, oral, Treatment C: two units Tablet Formulation 9b, read-out: AUC0-24 GM
[23] = human, plasma, oral, Treatment B: one unit Tablet Formulation 10a (300 mg Compound I, 100 mg Compound II, 50 mg Compound III), read-out: AUC0-last GM
[24] = human, plasma, oral, Treatment B: one unit Tablet Formulation 10a
[25] = human, plasma, oral, Treatment B: one unit Tablet Formulation 10a, read-out: AUC0-24 GM
[26] = human, plasma, oral, Treatment C: one unit Tablet Formulation 10b (300 mg Compound I, 100 mg Compound II, 50 mg Compound III), read-out: AUC0-last GM
[27] = human, plasma, oral, Treatment C: one unit Tablet Formulation 10b
[28] = human, plasma, oral, Treatment C: one unit Tablet Formulation 10b, read-out: AUC0-24 GM

CC(C)OC(=O)[C@@H](C)NP(=O)(OC[C@H]1O[C@@H](n2ccc(=O)[nH]c2=O)[C@](C)(Cl)[C@@H]1O)Oc1ccccc1 (stereo partly drawn) [Compound I, (2R)-isopropyl 2-(((((2R,3R,4R,5R)-4-chloro-5-(2,4-dioxo-3,4-dihydropyrimidin-1(2H)-yl)-3-hydroxy-4-methyltetrahydrofuran-2-yl)methoxy)(phenoxy)phosphoryl)amino)propanoate]
AUC0-24 B/A GM ratio [1, 3]: 1.23 | AUC0-last B/A GM ratio [1, 3]: 1.24 | AUC0-∞ B/A GM ratio [1, 3]: 1.23 | Cmax B/A GM ratio [1, 3]: 1.44 | AUC0-24 C/A GM ratio [1, 4]: 1.37 | AUC0-last C/A GM ratio [1, 4]: 1.38 | AUC0-∞ C/A GM ratio [1, 4]: 1.36 | Cmax C/A GM ratio [1, 4]: 1.69 | AUC(0-inf) [1, 5]: 2600 nM·h | Cmax [1, 5]: 0.738 µM | AUC(0-t) [1, 6]: 2560 nM·h | AUC(0-t) [1, 7]: 2520 nM·h | AUC(0-t) ([1]; human, in vivo, Treatment B: two units Tablet Formulation 9a (450 mg Compound I, 100 mg Compound II, 50 mg Compound III), read-out: AUC0-last GM): 3110 nM·h | AUC(0-inf) [1, 8]: 3200 nM·h | Cmax [1, 8]: 1.06 µM | AUC(0-t) ([1]; human, in vivo, Treatment B: two units Tablet Formulation 9a, read-out: AUC0-24 GM): 3150 nM·h | AUC(0-t) ([1]; human, in vivo, Treatment C: two units Tablet Formulation 9b (450 mg Compound I, 100 mg Compound II, 50 mg Compound III), read-out: AUC0-last GM): 3480 nM·h | AUC(0-inf) [1, 9]: 3540 nM·h | Cmax [1, 9]: 1.25 µM | AUC(0-t) ([1]; human, in vivo, Treatment C: two units Tablet Formulation 9b, read-out: AUC0-24 GM): 3520 nM·h | AUC0-24 B/A GM ratio [2, 10]: 0.96 | AUC0-last B/A GM ratio [2, 10]: 0.95 | AUC0-∞ B/A GM ratio [2, 10]: 0.98 | Cmax B/A GM ratio [2, 10]: 0.98 | AUC0-24 C/A GM ratio [2, 11]: 1.01 | AUC0-last C/A GM ratio [2, 11]: 1.00 | AUC0-∞ C/A GM ratio [2, 11]: 1.01 | Cmax C/A GM ratio [2, 11]: 1.18 | AUC(0-inf) [2, 5]: 1690 nM·h | Cmax [2, 5]: 0.525 µM | AUC(0-t) [2, 6]: 1650 nM·h | AUC(0-t) [2, 7]: 1630 nM·h | AUC(0-t) ([2]; human, in vivo, Treatment B: one unit Tablet Formulation 10a (300 mg Compound I, 100 mg Compound II, 50 mg Compound III), read-out: AUC0-last GM): 1550 nM·h | AUC(0-inf) [2, 12]: 1650 nM·h | Cmax [2, 12]: 0.517 µM | AUC(0-t) ([2]; human, in vivo, Treatment B: one unit Tablet Formulation 10a, read-out: AUC0-24 GM): 1580 nM·h | AUC(0-t) ([2]; human, in vivo, Treatment C: one unit Tablet Formulation 10b (300 mg Compound I, 100 mg Compound II, 50 mg Compound III), read-out: AUC0-last GM): 1630 nM·h | AUC(0-inf) [2, 13]: 1700 nM·h | Cmax [2, 13]: 0.618 µM | AUC(0-t) ([2]; human, in vivo, Treatment C: one unit Tablet Formulation 10b, read-out: AUC0-24 GM): 1670 nM·h

COC(=O)N[C@H](C(=O)N1CCC[C@H]1c1nc(-c2ccc3c(c2)O[C@@H](c2ccccc2)n2c-3cc3cc(-c4c[nH]c([C@@H]5CCCN5C(=O)[C@@H](NC(=O)OC)C(C)C)n4)ccc32)c[nH]1)C(C)C [Compound II, dimethyl N,N′-([(6S)-6-phenylindolo[1,2-c][1,3]benzoxazine-3,10-diyl]bis{1H-imidazole-5,2-diyl-(2S)-pyrrolidine-2,1-diyl[(2S)-3-methyl-1-oxobutane-1,2-diyl]})dicarbamate]
Cmax ([1]; Treatment C: two units Tablet Formulation 9b): 0.115 µM | AUC(0-inf) [1, 14]: 2040 nM·h | Cmax [1, 14]: 0.113 µM | AUC(0-t) [1, 15]: 1210 nM·h | AUC(0-t) [1, 16]: 2010 nM·h | concentration at 24 h [1, 14]: 0.0323 µM | AUC(0-t) [1, 17]: 1590 nM·h | AUC(0-inf) [1, 18]: 1610 nM·h | AUC(0-t) [1, 19]: 938 nM·h | concentration at 24 h [1, 18]: 0.0252 µM | AUC(0-t) [1, 20]: 2350 nM·h | AUC(0-inf) [1, 21]: 2380 nM·h | AUC(0-t) [1, 22]: 1410 nM·h | concentration at 24 h [1, 21]: 0.0374 µM | Cmax ([2]; Treatment C: one unit Tablet Formulation 10b): 0.102 µM | AUC(0-inf) [2, 14]: 1840 nM·h | Cmax [2, 14]: 0.101 µM | AUC(0-t) [2, 15]: 1120 nM·h | AUC(0-t) [2, 16]: 1810 nM·h | concentration at 24 h [2, 14]: 0.0285 µM | AUC(0-t) [2, 23]: 1550 nM·h | AUC(0-inf) [2, 24]: 1580 nM·h | Cmax [2, 24]: 0.0818 µM | AUC(0-t) [2, 25]: 950 nM·h | concentration at 24 h [2, 24]: 0.0251 µM | AUC(0-t) [2, 26]: 1830 nM·h | AUC(0-inf) [2, 27]: 1850 nM·h | AUC(0-t) [2, 28]: 1140 nM·h | concentration at 24 h [2, 27]: 0.0292 µM

C=C[C@@H]1C[C@]1(NC(=O)[C@@H]1C[C@@H]2CN1C(=O)[C@H](C(C)(C)C)NC(=O)O[C@@H]1C[C@H]1CCCCCc1nc3ccc(OC)cc3nc1O2)C(=O)NS(=O)(=O)C1CC1 [Compound III, (1aR,5S,8S,10R,22aR)-N-[(1R,2S)-1-[(cyclopropylsulfonamido)carbonyl]-2-ethenylcyclopropyl]-14-methoxy-5-(2-methylpropan-2-yl)-3,6-dioxo-1,1a,3,4,5,6,9,10,18,19,20,21,22,22a-tetradecahydro-8H-7,10-methanocyclopropa[18,19][1,10,3,6]dioxadiazacyclononadecino[11,12-b]quinoxaline-8-carboxamide hydrate]
logD (log D): -3 | AUC0-24 B/A GM ratio [1, 3]: 0.72 | AUC0-last B/A GM ratio [1, 3]: 0.77 | AUC0-∞ B/A GM ratio [1, 3]: 0.76 | C24 B/A GM ratio [1, 3]: 0.85 | Cmax B/A GM ratio [1, 3]: 0.64 | AUC0-24 C/A GM ratio [1, 4]: 1.00 | AUC0-last C/A GM ratio [1, 4]: 0.97 | AUC0-∞ C/A GM ratio [1, 4]: 0.88 | C24 C/A GM ratio [1, 4]: 1.04 | Cmax C/A GM ratio [1, 4]: 0.89 | AUC(0-inf) [1, 14]: 700 nM·h | Cmax [1, 14]: 0.0385 µM | AUC(0-t) [1, 15]: 316 nM·h | AUC(0-t) [1, 16]: 538 nM·h | concentration at 24 h [1, 14]: 0.00638 µM | AUC(0-t) [1, 17]: 415 nM·h | AUC(0-inf) [1, 18]: 530 nM·h | Cmax [1, 18]: 0.0248 µM | AUC(0-t) [1, 19]: 229 nM·h | concentration at 24 h [1, 18]: 0.00541 µM | AUC(0-t) [1, 20]: 522 nM·h | AUC(0-inf) [1, 21]: 617 nM·h | Cmax [1, 21]: 0.0341 µM | AUC(0-t) [1, 22]: 317 nM·h | concentration at 24 h [1, 21]: 0.00663 µM | AUC0-24 B/A GM ratio [2, 10]: 0.71 | AUC0-last B/A GM ratio [2, 10]: 0.72 | AUC0-∞ B/A GM ratio [2, 10]: 0.69 | C24 B/A GM ratio [2, 10]: 0.80 | Cmax B/A GM ratio [2, 10]: 0.70 | AUC0-24 C/A GM ratio [2, 11]: 0.86 | AUC0-last C/A GM ratio [2, 11]: 0.91 | AUC0-∞ C/A GM ratio [2, 11]: 0.95 | C24 C/A GM ratio [2, 11]: 0.85 | Cmax C/A GM ratio [2, 11]: 0.91 | AUC(0-inf) [2, 14]: 500 nM·h | Cmax [2, 14]: 0.0275 µM | AUC(0-t) [2, 15]: 240 nM·h | AUC(0-t) [2, 16]: 360 nM·h | concentration at 24 h [2, 14]: 0.00485 µM | AUC(0-t) [2, 23]: 260 nM·h | AUC(0-inf) [2, 24]: 340 nM·h | Cmax [2, 24]: 0.0193 µM | AUC(0-t) [2, 25]: 170 nM·h | concentration at 24 h [2, 24]: 0.00389 µM | AUC(0-t) [2, 26]: 330 nM·h | AUC(0-inf) [2, 27]: 470 nM·h | Cmax [2, 27]: 0.0249 µM | AUC(0-t) [2, 28]: 200 nM·h | concentration at 24 h [2, 27]: 0.00411 µM
